The results in this text go back to US10183938B2, “Geminal substituted quinuclidine amide compounds as agonists of α-7 nicotonic acetylcholine receptors” (AXOVANT SCIENCES GMBH, priority 2014, dated 2019).

Where a name gives a salt, the structure may show the parent alone.

Sequence of human 5-HT3 serotonin receptors (P46098 24-478): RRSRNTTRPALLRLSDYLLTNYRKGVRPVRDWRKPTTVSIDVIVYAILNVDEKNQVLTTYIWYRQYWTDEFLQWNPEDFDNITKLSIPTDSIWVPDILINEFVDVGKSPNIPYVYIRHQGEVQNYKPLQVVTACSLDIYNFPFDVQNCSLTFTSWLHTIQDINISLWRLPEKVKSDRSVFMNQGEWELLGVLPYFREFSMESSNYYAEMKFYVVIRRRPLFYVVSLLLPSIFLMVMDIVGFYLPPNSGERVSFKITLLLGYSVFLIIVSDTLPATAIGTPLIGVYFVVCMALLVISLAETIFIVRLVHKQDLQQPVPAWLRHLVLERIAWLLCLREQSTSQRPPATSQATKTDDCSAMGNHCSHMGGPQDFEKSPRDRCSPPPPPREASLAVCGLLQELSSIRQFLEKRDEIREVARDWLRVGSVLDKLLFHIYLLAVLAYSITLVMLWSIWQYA

The assay has as its target human 5-HT3 serotonin receptors (Homo sapiens (Human), UniProt P46098). The experiment in a line: [3H]BRL 43694 competition binding. The settings on record: CHO cell membranes, [3H]BRL 43694, Cheng Prusoff; read-out: h-5HT3 Ki.
`CC1(c2cccc3cc(C(=O)N[C@@H]4C5CCN(CC5)C4(C)C)sc23)CC1` [(R)-133, (R)—N-(2,2-dimethylquinuclidin-3-yl)-7-(1-methylcyclopropyl)benzo[b]thiophene-2-carboxamide hydrochloride]: the Ki (as a rule, the dissociation constant of the complex between target and ligand, obtained from inhibition or displacement) is 400 nM.

In the case of `COc1c(C2CC2)ccc2cc(C(=O)N[C@@H]3C4CCN(CC4)C34CC4)sc12` [(R)-262, (R)-6-cyclopropyl-7-methoxy-N-(1′-azaspiro[cyclopropane-1,2′-bicyclo[2.2.2]octan]-3′-yl)benzo[b]thiophene-2-carboxamide hydrochloride], the Ki was more than 10000 nM.

With `Cc1cccc2cc(C(=O)N[C@@H]3C4CCN(CC4)C34CC4)sc12` [(R)-176, (R)-7-methyl-N-(1′-azaspiro[cyclopropane-1,2′-bicyclo[2.2.2]octan]-3′-yl)benzo[b]thiophene-2-carboxamide hydrochloride], the inhibition constant (Ki) is 130 nM.

In the case of `CCOc1ccc2cc(C(=O)N[C@@H]3C4CCN(CC4)C34CC4)sc2c1` [(R)-189, (R)-6-ethoxy-N-(1′-azaspiro[cyclopropane-1,2′-bicyclo[2.2.2]octan]-3′-yl)benzo[b]thiophene-2-carboxamide hydrochloride], the Ki was more than 10000 nM. For `COc1c(F)ccc2cc(C(=O)N[C@@H]3C4CCN(CC4)C34CC4)sc12` [(R)-197, (R)-6-fluoro-7-methoxy-N-(1′-azaspiro[cyclopropane-1,2′-bicyclo[2.2.2]octan]-3′-yl)benzo[b]thiophene-2-carboxamide hydrochloride] the value was 2800 nM; for `CC(C)(C)c1cccc2cc(C(=O)N[C@@H]3C4CCN(CC4)C34CC4)sc12` [(R)-184, (R)-7-(tert-butyl)-N-(1′-azaspiro[cyclopropane-1,2′-bicyclo[2.2.2]octan]-3′-yl)benzo[b]thiophene-2-carboxamide hydrochloride], 110 nM; for `O=C(N[C@@H]1C2CCN(CC2)C12CC2)c1cc2cccc(OC(F)(F)F)c2s1` [(R)-167, (R)—N-(1′-azaspiro[cyclopropane-1,2′-bicyclo[2.2.2]octan]-3′-yl)-7-(trifluoromethoxy)benzo[b]thiophene-2-carboxamide hydrochloride], 895 nM.

Regarding `Cc1ccc2cc(C(=O)N[C@@H]3C4CCN(CC4)C3(C)C)sc2c1C1CC1` [(R)-140, (R)-7-cyclopropyl-N-(2,2-dimethylquinuclidin-3-yl)-6-methylbenzo[b]thiophene-2-carboxamide hydrochloride], the Ki was determined as 22000 nM. For `O=C(N[C@@H]1C2CCN(CC2)C12CC2)c1cc2cc(F)c(Cl)cc2s1` [(R)-172, (R)-6-chloro-5-fluoro-N-(1′-azaspiro[cyclopropane-1,2′-bicyclo[2.2.2]octan]-3′-yl)benzo[b]thiophene-2-carboxamide hydrochloride] the value was 4900 nM. As for `CC1(C)[C@H](NC(=O)c2cc3cccc(CC(F)(F)F)c3s2)C2CCN1CC2` [(R)-127, (R)—N-(2,2-dimethylquinuclidin-3-yl)-7-(2,2,2-trifluoroethyl)benzo[b]thiophene-2-carboxamide hydrochloride], the figure is 1100 nM; as for `COc1c(C)ccc2cc(C(=O)N[C@@H]3C4CCN(CC4)C34CC4)sc12` [(R)-193, (R)-7-methoxy-6-methyl-N-(1′-azaspiro[cyclopropane-1,2′-bicyclo[2.2.2]octan]-3′-yl)benzo[b]thiophene-2-carboxamide hydrochloride], 6000 nM; as for `CC1(C)[C@H](NC(=O)c2cc3cccc(-c4ccccc4)c3s2)C2CCN1CC2` [(R)-132, (R)—N-(2,2-dimethylquinuclidin-3-yl)-7-phenylbenzo[b]thiophene-2-carboxamide hydrochloride], 100 nM. As for `CC1(C)[C@H](NC(=O)c2cc3cccc(-c4nccs4)c3s2)C2CCN1CC2` [(R)-129, (R)—N-(2,2-dimethylquinuclidin-3-yl)-7-(thiazol-2-yl)benzo[b]thiophene-2-carboxamide hydrochloride], the figure is 440 nM; as for `CC1(c2cccc3cc(C(=O)N[C@@H]4C5CCN(CC5)C45CC5)sc23)CC1` [(R)-188, (R)-7-(1-methylcyclopropyl)-N-(1′-azaspiro[cyclopropane-1,2′-bicyclo[2.2.2]octan]-3′-yl)benzo[b]thiophene-2-carboxamide-hydrochloride], 200 nM. Consider `O=C(N[C@@H]1C2CCN(CC2)C12CC2)c1cc2ccc(Cl)c(C(F)(F)F)c2s1` [(R)-152, (R)-6-chloro-N-(1′-azaspiro[cyclopropane-1,2′-bicyclo[2.2.2]octan]-3′-yl)-7-(trifluoromethyl)benzo[b]thiophene-2-carboxamide hydrochloride], for which the Ki is more than 10000 nM. As for `Cc1ccc2cc(C(=O)N[C@@H]3C4CCN(CC4)C3(C)C)sc2c1C(F)(F)F` [(R)-113, (R)—N-(2,2-dimethylquinuclidin-3-yl)-6-methyl-7-(trifluoromethyl)benzo[b]thiophene-2-carboxamide hydrochloride], the figure is more than 10000 nM; as for `O=C(N[C@@H]1C2CCN(CC2)C12CC2)c1ccc2oc(C3CC3)cc2c1` [(R)-183, (R)-2-cyclopropyl-N-(1′-azaspiro[cyclopropane-1,2′-bicyclo[2.2.2]octan]-3′-yl)benzofuran-5-carboxamide hydrochloride], more than 10000 nM. As for `CC(C)c1cccc2cc(C(=O)N[C@@H]3C4CCN(CC4)C34CC4)sc12` [(R)-166, (R)-7-isopropyl-N-(1′-azaspiro[cyclopropane-1,2′-bicyclo[2.2.2]octan]-3′-yl)benzo[b]thiophene-2-carboxamide hydrochloride], the figure is 325 nM; as for `CC1(C)[C@H](NC(=O)c2cc3cc(F)c(Cl)c(F)c3s2)C2CCN1CC2` [(R)-125, (R)-6-chloro-N-(2,2-dimethylquinuclidin-3-yl)-5,7-difluorobenzo[b]thiophene-2-carboxamide hydrochloride], more than 10000 nM. For `O=C(N[C@@H]1C2CCN(CC2)C12CC2)c1cc2cccc(C3CC3)c2s1` [(R)-165, (R)-7-cyclopropyl-N-(1′-azaspiro[cyclopropane-1,2′-bicyclo[2.2.2]octan]-3′-yl)benzo[b]thiophene-2-carboxamide hydrochloride] the value was 200 nM. For `O=C(N[C@@H]1C2CCN(CC2)C12CC2)c1cc2ccc3c(c2s1)CCCO3` [(R)-204, (R)—N-(1′-azaspiro[cyclopropane-1,2′-bicyclo[2.2.2]octan]-3′-yl)-8,9-dihydro-7H-thieno[2,3-f]chromene-2-carboxamide hydrochloride], the Ki was more than 10000 nM. Turning to `O=C(N[C@@H]1C2CCN(CC2)C12CC2)c1cc2ccccc2[nH]1` [(R)-170, (R)—N-(1′-azaspiro[cyclopropane-1,2′-bicyclo[2.2.2]octan]-3′-yl)-1H-indole-2-carboxamide hydrochloride], the inhibition constant Ki worked out at 800 nM.

With `Cc1cccc2cc(C(=O)N[C@@H]3C4CCN(CC4)C3(C)C)sc12` [(R)-126, (R)—N-(2,2-dimethylquinuclidin-3-yl)-7-methylbenzo[b]thiophene-2-carboxamide hydrochloride], the inhibitory constant (Ki) was 170 nM. For `Cc1ccc2cc(C(=O)N[C@@H]3C4CCN(CC4)C34CC4)sc2c1C1CC1` [(R)-196, (R)-7-cyclopropyl-6-methyl-N-(1′-azaspiro[cyclopropane-1,2′-bicyclo[2.2.2]octan]-3′-yl)benzo[b]thiophene-2-carboxamide hydrochloride], the Ki is 610 nM.
